Where two headings read alike, the source gives them in different places.
Legend:
[1] = tested on: MV-4-11 cells; assay: Oncology cell growth assay MV-4-11 (CellTiter Glo); type: cell-based; details: Homo sapiens, MV4-11, 72 h, read-out: Cell activity (IC50 μM) MV-4-11 3d-Growth
In short: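 Growth read by CellTiter Glo luminescence after 72 h compound treatment of MLL-AF4-bearing MV-4-11 cells (3000/well). Titration: 8 points, 1:3 steps, maximum 10 μM, 0.2% DMSO final. Data normalized to DMSO wells, four-parameter fit gives pIC50.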

[2] = tested on: bromodomain; assay: at least one of the bromodomain cell assays of Example 57; type: cell-based; details: at least one of the bromodomain cell assays described in Example 57; read-out: IC50 in at least one of the bromodomain cell assays
[3] = biological target: BRD4-BD12 (1-477) (Homo sapiens (Human), UniProt O60885); assay: Alphascreen binding assay BRD4-BD12; details: BRD4(1 2) H4; read-out: Biochemical activity (IC50 μM) BRD4(1 2) H4
In short: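 In this competition format, compounds displace a biotinylated tetra-acetyl H4 peptide from E. coli-expressed human BRD4 bromodomain constructs captured on nickel chelate beads. The reaction runs at pH 7.5 with 2 mM DTT and detergent for 1 h at room temperature before a 30 min bead step.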

Compound	IC50 ([1]; MV-4-11, 3d growth) [µM]	IC50 [2] [nM]	IC50 [3] [µM]	IC50 [1] [µM]
Cc1noc(C)c1-c1cnc2c(-c3ccc(-c4nnn[nH]4)cc3)cn(CC3(F)CCCCC3)c2c1 [P-0460, 4-[1-[(1-fluorocyclohexyl)methyl]-3-[4-(1H-tetrazol-5-yl)phenyl]pyrrolo[3,2-b]pyridin-6-yl]-3,5-dimethyl-isoxazole]	< 1	< 10000	< 1	
Cc1noc(C)c1-c1cnc2c(-c3cnn(CC(=O)O)c3)cn(CC3CCC(F)(F)CC3)c2c1 [P-0482, 3-[4-[1-[(4,4-difluorocyclohexyl)methyl]-6-(3,5-dimethylisoxazol-4-yl)pyrrolo[3,2-b]pyridin-3-yl]pyrazol-1-yl]acetic acid]	10 to 200	< 10000	< 1	
COC(=O)c1ccc(-c2cn(CC3CCC(F)(F)CC3)c3cc(-c4c(C)noc4C)cnc23)cn1 [P-0418, methyl 5-[1-[(4,4-difluorocyclohexyl)methyl]-6-(3,5-dimethylisoxazol-4-yl)pyrrolo[3,2-b]pyridin-3-yl]pyridine-2-carboxylate]		< 10000	< 1	< 1
[2H]C([2H])(C1CCC(F)(F)CC1)n1cc(-c2cnc(OC)nc2)c2ncc(-c3c(C)noc3C)cc21 [P-0346, 4-[1-[dideuterio-(4,4-difluorocyclohexyl)methyl]-3-(2-methoxypyrimidin-5-yl)pyrrolo[3,2-b]pyridin-6-yl]-3,5-dimethyl-isoxazole]		< 10000	< 1	< 1
CCOC(=O)c1ccc(-n2cc(CC3CCC(F)(F)CC3)c3cc(-c4c(C)noc4C)cnc32)c(F)c1 [P-0441, ethyl 4-[3-[(4,4-difluorocyclohexyl)methyl]-5-(3,5-dimethylisoxazol-4-yl)pyrrolo[2,3-b]pyridin-1-yl]-3-fluoro-benzoate]	1 to 10	< 10000	< 1	
CCOC(=O)c1ccc(-c2cn(CC3CCC(F)(F)CC3)c3cc(-c4c(C)noc4C)cnc23)cc1 [P-0537, ethyl 4-[1-[(4,4-difluorocyclohexyl)methyl]-6-(3,5-dimethylisoxazol-4-yl)pyrrolo[3,2-b]pyridin-3-yl]benzoate]	< 1	< 10000	< 1	
Cc1noc(C)c1-c1cnc2c(-c3ccc(C(=O)O)cc3)cn(CC3CCC4(CC3)CC4)c2c1 [P-0582, 4-[6-(3,5-dimethylisoxazol-4-yl)-1-(spiro[2.5]octan-6-ylmethyl)pyrrolo[3,2-b]pyridin-3-yl]benzoic acid]	< 1	< 10000	< 1	
Cc1noc(C)c1-c1cnc2c(-c3ccc(CC(=O)O)cc3)cn(CC3CCCCCC3)c2c1 [P-0587, 2-[4-[1-(cycloheptylmethyl)-6-(3,5-dimethylisoxazol-4-yl)pyrrolo[3,2-b]pyridin-3-yl]phenyl]acetic acid]	< 1	< 10000	< 1	
CCn1cc(-c2cnc3ccn(CC4CCC(F)(F)CC4)c3c2)ccc1=O [P-0517, 5-[1-[(4,4-difluorocyclohexyl)methyl]pyrrolo[3,2-b]pyridin-6-yl]-1-ethyl-pyridin-2-one]	1 to 10	< 10000	1 to 10	
Cn1cc(-c2cn(CC3CCC(F)(F)CC3)c3cc(-c4ccc(=O)n(C)c4)cnc23)cn1 [P-0438, 5-[1-[(4,4-difluorocyclohexyl)methyl]-3-(1-methylpyrazol-4-yl)pyrrolo[3,2-b]pyridin-6-yl]-1-methyl-pyridin-2-one]	< 1	< 10000	< 1	
COC(=O)c1ccc(-c2cn(Cc3cccnn3)c3cc(-c4c(C)noc4C)cnc23)cc1 [P-0539, methyl 4-[6-(3,5-dimethylisoxazol-4-yl)-1-(pyridazin-3-ylmethyl)pyrrolo[3,2-b]pyridin-3-yl]benzoate]	< 1	< 10000	< 1	
Cc1noc(C)c1-c1cnc2c(-c3ccc(S(=O)(=O)NC4CC4)cc3)cn(CC3(F)CCCCC3)c2c1 [P-0494, N-cyclopropyl-4-[6-(3,5-dimethylisoxazol-4-yl)-1-[(1-fluorocyclohexyl)methyl]pyrrolo[3,2-b]pyridin-3-yl]benzenesulfonamide]	< 1	< 10000	< 1	
Cc1noc(C)c1-c1cnc2c(-c3ccc4c(c3)CNC4=O)cn(CC3(F)CCCCC3)c2c1 [P-0505, 5-[6-(3,5-dimethylisoxazol-4-yl)-1-[(1-fluorocyclohexyl)methyl]pyrrolo[3,2-b]pyridin-3-yl]isoindolin-1-one]	< 1	< 10000	< 1	
COC(=O)Cc1ccc(-c2cn([C@@H](C)c3ccccn3)c3cc(-c4c(C)noc4C)cnc23)cc1 [P-0565, methyl 2-[4-[6-(3,5-dimethylisoxazol-4-yl)-1-[(1S)-1-(2-pyridyl)ethyl]pyrrolo[3,2-b]pyridin-3-yl]phenyl]acetate]	< 1	< 10000	< 1	
Cc1noc(C)c1-c1cnc2c(I)cn(CC3CCC(F)(F)CC3)c2c1 [P-0250, 4-[1-[(4,4-difluorocyclohexyl)methyl]-3-iodo-pyrrolo[3,2-b]pyridin-6-yl]-3,5-dimethyl-isoxazole]		< 10000	< 1	< 1
Cc1noc(C)c1-c1cnc2c(-c3ccc(C(C)(C)C)cc3)cn([C@@H](C)c3ccccn3)c2c1 [P-0806, 4-[3-(4-tert-butylphenyl)-1-[(1S)-1-(2-pyridyl)ethyl]pyrrolo[3,2-b]pyridin-6-yl]-3,5-dimethyl-isoxazole]	1 to 10	< 10000	< 1	
Cc1noc(C)c1-c1cnc2c(-c3cnn(C(F)F)c3)cn([C@@H](C)c3ccc(F)cc3)c2c1 [P-0355, 4-[3-[1-(difluoromethyl)pyrazol-4-yl]-1-[(1S)-1-(4-fluorophenyl)ethyl]pyrrolo[3,2-b]pyridin-6-yl]-3,5-dimethyl-isoxazole]		< 10000	< 1	< 1
Cc1noc(C)c1-c1cnc2c(-c3ccc(C(C)(C)C)cc3)cn(CC3CCC(F)(F)CC3)c2c1 [P-0802, 4-[3-(4-tert-butylphenyl)-1-[(4,4-difluorocyclohexyl)methyl]pyrrolo[3,2-b]pyridin-6-yl]-3,5-dimethyl-isoxazole]	1 to 10	< 10000	< 1	
CC[C@@H](c1ccccc1)n1cc(-c2ccc(C(=O)O)cc2)c2ncc(-c3c(C)noc3C)cc21 [P-0567, 4-[6-(3,5-dimethylisoxazol-4-yl)-1-[(1S)-1-phenylpropyl]pyrrolo[3,2-b]pyridin-3-yl]benzoic acid]	< 1	< 10000	< 1	
Cc1noc(C)c1-c1cnc2c(-c3cnc(N)nc3)cn(CC3CCC(F)(F)CC3)c2c1 [P-0396, 5-[1-[(4,4-difluorocyclohexyl)methyl]-6-(3,5-dimethylisoxazol-4-yl)pyrrolo[3,2-b]pyridin-3-yl]pyrimidin-2-amine]		< 10000	< 1	< 1
COC(=O)c1ccc(-c2cn(Cc3ccccn3)c3cc(-c4c(C)noc4C)cnc23)cc1 [P-0435, methyl 4-[6-(3,5-dimethylisoxazol-4-yl)-1-(2-pyridylmethyl)pyrrolo[3,2-b]pyridin-3-yl]benzoate]	< 1	< 10000	< 1	

Source: patent US10519177B2, “Heterocyclic compounds and uses thereof” (Plexxikon Inc., priority 2013, dated 2019)
